# System: CD4^+ T cells combined with CD14^+ dendritic cells
# Assay: Allogeneic mixed lymphocyte reaction (MLR), IL-2 and IFN-γ by ELISA
# Assay type: cell-based, Human
# Method: Human peripheral CD14 positive monocytes were collected from a human donor and, subsequently, differentiated and matured into CD14^+ dendritic cells (DCs). Human CD4 positive T-cells were separately collected from another human donor. The collected CD4^+ T cells were combined with the CD14^+ DCs in a mixed lymphocyte reaction (MLR). In this Example, a tubulin binding agent was added, respectively, in the step of monocyte differentiation, in the step of dendritic cell maturation, and in the step of T-cell activation by combining the CD14^+ DCs with the CD4^+ T cells.
# ISOLATION OF HUMAN CD4^+ T CELLS FROM ANOTHER DONOR'S PBMCs: PBMC cells were obtained from another human donor according to (1a)-(1d) above. CD4^+ T-cells were then isolated from these PBMCs according to steps (3a)-(3k) as follows: (3a) The number of the PBMC cells was determined. (3b) The cell suspension was centrifuged at 300×g for 10 min. The supernatant was then completely aspirated. (3c) The cell pellet was re-suspended in 40 μL of FACS buffer per 10^7 total cells. (3d) 10 μL of CD4^+ T Cell Biotin-Antibody Cocktail was added per 10^7 total cells. (3e) The mixture was well mixed and incubated for 5 min in refrigerator (at 2-8° C.). (3f) 30 μL of FACS buffer was added per 10^7 total cells, and 20 μL of CD4^+ T-Cell MicroBead Cocktail was added per 10^7 total cells. (3g) The mixture was well mixed and incubated for 10 min in refrigerator (at 2 to 8° C.). (3h) A column is placed in magnetic field of a suitable MACS Separator. (3i) The column is prepared by rinsing with 3 mL of buffer. (3j) The cell suspension was applied onto the column. The flow-through containing unlabeled cells, representing the enriched CD4^+ T cells, were collected. […]
# ALLOGENEIC ACTIVATION OF T CELLS ASSESSED BY MLR ASSAY: Allogeneic Mixed Lymphocyte Reaction (MLR) assays were performed according to steps (4a)-(4d) as follows: (4a) The test article (e.g., plinabulin and other tubulin binding agents) were each diluted in RPMI 1640 medium according to one of Tables 7-9 and, subsequently, added at 50 μL/well in appropriate wells. […]
structure (smiles),measurement,setting,value
"CC(C)(C)c1[nH]cnc1/C=c1\[nH]c(=O)/c(=C/c2ccccc2)[nH]c1=O [Plinabulin, (3Z,6Z)-3-Benzylidene-6-{[5-(2-methyl-2-propanyl)-1H-imidazol-4-yl]methylene}-2,5-piperazinedione]",IL2 secretion in MLR,CD14^+ monocytes treated at 1 or 3 μM during DC differentiation,decrease in IL2 secretion
same,IL2 secretion in MLR,DCs treated at 1 or 3 μM during DC maturation,increase in IL2 secretion
same,MLR induced IL-2 secretion,"treatment at ≥100 nM began when mature DCs were combined with CD4 T-cells, compared with nivolumab at 2 mg/ml","significant increase in MLR induced IL-2 secretion, greater than that of nivolumab"
